The values that follow are results of earlier work, collected in patent publication US20060111343A1, “Oxcarbazepine dosage forms” (Glenmark Pharmaceuticals Limited, priority 2004, published 2006).

Take `NC(=O)N1c2ccccc2CC(=O)c2ccccc21` [Oxcarbazepine, 10,11-dihydro-10-oxo-5H-dibenzo[b,]azepine-5-carboxamide]: the solubility in water result is listed as “poor solubility in water”.
